Patent US20140296338A1, “PROPHYLACTIC AND/OR THERAPEUTIC AGENT FOR CARDIOVASCULAR COMPLICATIONS OF DIABETES” (priority 2011, published 2014)

System: dermal fibroblast
Assay: Influence of fatty acids on intracellular neutral lipid content of dermal fibroblast from diabetic patient, enzyme assay
Assay type: cell-based, human
Parameters: Intracellular TG-decreasing activity: scale not given here
Details: for Intracellular TG-decreasing activity: based on part of the results in FIG. 4 and FIG. 5; for Activity to decrease intracellular TG: comparison of medium-chain fatty acids (FIG. 5); for Intracellular TG (neutral lipid) content: fatty acid added at 50 and 500 μM, cells collected 2 days later, versus no fatty acid (FIG. 4)
Excerpt: With the consent of the diabetic patient in Example 3, part of dermal tissue was harvested and was then subjected to primary culture (culture medium: DMEM/10% FBS) by Explant method, followed by repeated subculture to give a cell line. The resulting dermal fibroblast was examined for the influence of various fatty acids on an intracellular neutral lipid content. Specifically, the dermal specimen harvested from the patient was subjected to an in vitro enzyme assay using various fatty acids to measure an intracellular neutral lipid content. The enzyme assay was performed using a triglyceride quantification kit (manufacturer: BioVision, Inc., product code: K622-100). […] To the patient's cells, the various fatty acids were added, and 2 days later, the cells were collected. In the figures, (-) is a specimen to which no fatty acid was added (cultured as a control in DMEM/10% FBS alone). C16:0 is palmitic acid, C18:1 is oleic acid, C18:2 is linoleic acid, C20:4 is arachidonic acid, C20:5 is eicosapentaenoic acid (EPA), C7:0 is heptanoic acid, C8:0 is caprylic acid, and C10:0 is capric acid.

## CC(C)CCCCCCC(=O)O [8-methylnonanoic acid]
  Intracellular TG-decreasing activity: 100
  Activity to decrease intracellular TG: great activity to decrease TG

## CCCCCCCCCC(=O)O [capric acid]
  Intracellular TG-decreasing activity: 100
  Activity to decrease intracellular TG: great activity to decrease TG
  Intracellular TG (neutral lipid) content: decreased

## CCCCCCCC(=O)O [caprylic acid]
  Intracellular TG-decreasing activity: 5

## CCCCCCC(=O)O [heptanoic acid, reference compound]
  Intracellular TG-decreasing activity: 0
  Intracellular TG (neutral lipid) content: increased
